Data set [1] concerns HL-60 (promyelocytic leukemia). Description: MTT cell viability assay, HL-60. Format: cell-based. The note with it: Homo sapiens, MTT after 72 hours. The protocol:
(§1) The following cell lines were used in this assay: HL-60 (promyelocytic leukemia); Jurkat (T cell leukemia); CCRF-CEM (lymphoblastic leukemia); CEM/C2 (camptothecan resistant derivative of CCRF-CEM).
(§2) Cells were seeded in 96 wells plates at 3000 cells per well and incubated for 16 hours. Compound dilutions were performed in DMSO from 10 mM with 3 fold dilutions. Titrations were diluted 1:100 in media to achieve final compound concentrations. The 96 well plates were aspirated and compound dilutions in media were added ([…]). MTT analysis was carried out after 72 hours of incubation at 37° C. Briefly, […] of MTT solution was added to each well. Cells were incubated at 37° C. for 1-2 hours. Cells were lysed with the addition of […] cell lysis buffer and MTT was solubilized overnight at 37° C. Plates were read on a spectromax machine with an absorbance measurement at […]. IC50's were calculated (data provided in Table 1) using regression analysis within GraphPad Prism.

Data set [2] relates to CCRF-CEM (lymphoblastic leukemia). Kind of data set: MTT cell viability assay, CCRF-CEM. The note with it: Homo sapiens, MTT after 72 hours. Format: cell-based. The protocol:
as §1, §2
On the technique in general: Tetrazolium dyes change colour on reduction, which living cells bring about.

Data set [3] deals with CEM/C2 (camptothecan resistant derivative of CCRF-CEM). Description: MTT cell viability assay, CEM/C2. To be noted: Homo sapiens, MTT after 72 hours. Format: cell-based. The protocol: as §1, §2
For data set [4], the system named is CCRF-CEM acute lymphoblastic leukemia tumor. Description: CCRF-CEM xenograft model. It is filed as in vivo. Here is the method: CCRF-CEM acute lymphoblastic leukemia tumor lobes of 2-3 mm square were transplanted subcutaneously into nude mice. Tumors were allowed to grow to approximately 8-20 mm in diameter. […] Acceptable toxicity was defined as a mean group weight loss of 30% or less and not more than one toxic death among 6 treated animals. Anti-tumor activities of the drugs were assessed 20 or 21 days after the start of administration. FIGS. 1-2 and Table 2 provides data for tumor inhibition rate (IR) and survival ratio in the CCRF-CEM and LM3-Jck xenograft models.

The subject of data set [5] is LM3-Jck human malignant lymphoma tumor. Description: LM3-Jck xenograft model. Format: in vivo. The note with it: LM3-JcK. Here is the method: LM3-Jck human malignant lymphoma tumor lobes (2-3 mm square) were transplanted subcutaneously into nude mice. Tumors were allowed to grow to approximately 7-14 mm in diameter. […] Acceptable toxicity was defined as a mean group weight loss of 30% or less and not more than one toxic death among 6 treated animals. Anti-tumor activities of the drugs were assessed 21 days after the start of administration.

Where [6] appears, read: CCRF-CEM, 100 mg/kg q4d × 3, IV.

Converted amounts (≈) assume the structure as drawn. Marks after values point to notes of the source that are not given here.

With `CCc1c2c(nc3ccc(OC(=O)N4CCC(N5CCCCC5)CC4)cc13)-c1cc3c(c(=O)n1C2)COC(=O)[C@]3(O)CC` [Irinotecan], the IC50 amounted to 0.905 µg/mL (≈ 1.54 µM) in data set [1], 0.479 µg/mL (≈ 0.816 µM) in data set [2] and 44.4 µg/mL (≈ 75.7 µM) in data set [3]. Further, the “IR (%) tumor inhibition rate” value is 99.7* % in data set [4] (setting [6]) and 97.7* % in data set [5] (100 mg/kg q4d × 3, IV). Further, the “Survival Ratio” value in data set [4] (setting [6]) is reported as 5/6; in data set [5] (100 mg/kg q4d × 3, IV), 6/6.
The compound `COc1cc([C@@H]2c3cc4c(cc3[C@@H](O[C@@H]3O[C@@H]5CO[C@@H](C)O[C@H]5[C@H](O)[C@H]3O)[C@H]3COC(=O)[C@H]23)OCO4)cc(OC)c1O` [Etoposide] registered an IC50 in data set [1] of 0.136 µg/mL (≈ 0.231 µM). Besides, the “IR (%) tumor inhibition rate” value in data set [4] (CCRF-CEM, 12 mg/kg qd × 5, IV) worked out at 28.3%; in data set [5] (12 mg/kg qd × 5, IV) it was 3.0%. The “Survival Ratio” value in data set [4] (nude, mouse, in vivo, iv, 12 mg/kg) is on record as 6/6.
Take `COc1cccc2c1C(=O)c1c(O)c3c(c(O)c1C2=O)C[C@@](O)(C(=O)CO)C[C@@H]3O[C@H]1C[C@H](N)[C@H](O)[C@H](C)O1` [Doxorubicin]: the IC50 in data set [1] was 0.024 µg/mL (≈ 0.0442 µM); in data set [2] it was 0.003 µg/mL (≈ 0.00552 µM); in data set [3] it was 0.017 µg/mL (≈ 0.0313 µM). Further, the “IR (%) tumor inhibition rate” value is given as 50.3* % in data set [4] (CCRF-CEM, 12 mg/kg q7d × 3, IV) and 57.2* % in data set [5] (12 mg/kg q7d × 3, IV).

Usually IC50 stands for the concentration needed to halve the response being measured. Low values mean inhibition by little substance, high ones a need for much substance.

(Values after patent US20080063642A1, “Methods of using (+)-1,4-dihydro-7-[(3S,4S)-3-methoxy-4-(methylamino)-1-pyrrolidinyl]-4-oxo-1-(2-thiazolyl)-1,8-naphthyridine-3-carboxylic acid for treatment of certain hematologic disorders” (priority 2006, published 2008).)
